Holding throughout (assay type): binding
Test [1] deals with T1, monomeric sarcosine oxidase (MSOX) (Bacillus sp. B-0618, UniProt P40859, K266M).
T1 sequence (P40859 2-390 K266M): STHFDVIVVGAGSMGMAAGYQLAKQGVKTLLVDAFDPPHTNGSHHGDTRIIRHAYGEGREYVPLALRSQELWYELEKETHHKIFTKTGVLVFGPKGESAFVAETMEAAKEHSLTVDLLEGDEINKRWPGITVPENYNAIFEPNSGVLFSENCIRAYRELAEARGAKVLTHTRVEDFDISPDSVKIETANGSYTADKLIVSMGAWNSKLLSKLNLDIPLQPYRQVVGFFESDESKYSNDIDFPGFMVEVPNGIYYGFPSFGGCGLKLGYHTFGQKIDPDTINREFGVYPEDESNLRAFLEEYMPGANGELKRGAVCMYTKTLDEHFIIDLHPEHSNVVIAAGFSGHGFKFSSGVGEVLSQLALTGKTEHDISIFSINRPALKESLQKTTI
Nature of the test: stopped-flow diode array, initial charge transfer absorbance.

In test [2] the target is T2, monomeric sarcosine oxidase (MSOX) (Bacillus sp. B-0618, UniProt P40859, K266R).
T2 sequence (P40859 2-390 K266R): T1 sequence (P40859 2-390 K266M)
The description is as above.

Test [3] addresses T1, monomeric sarcosine oxidase (MSOX). Nature of the test: absorption spectral titration of charge transfer band.
Test [4] deals with T2, monomeric sarcosine oxidase (MSOX). The test is described as above.

As to `CNCC(=O)O` [sarcosine, N-methylglycine], the values for the Kd in test [1] and in test [2] were 58 ± 10 mM and 34 ± 1 mM, respectively.

`CSCC(=O)O` [methylthioacetate]: the Kd in test [3] worked out at 13.3 ± 0.3 mM; in test [4], 6.9 ± 0.1 mM.

For the origin of these results see paper PMC2764408 (Biochemistry, 2008).
